From US7094789B2, “5-substituted isoquinoline derivatives” (Asahi Kasei Pharma Corporation, priority 2002, dated 2006) come the findings set out here.

Assay [1] has as its system thoracic aorta constricted with phenylephrine. The experiment in a line: Vasoconstriction inhibitory action (Test Example 2). On the set-up: species or system Rats (Wistar). The following applies: result in words; rat thoracic aorta, phenylephrine. The source says:
Rats (Wistar, 11-week old) were bleeded to death and laparotomized to take out the thoracic aorta. That aorta was cut into a ring of a length of about 3 mm in a conventional manner (Asano, T., et al., J. Pharmacol. Exp. Ther., 241, pp. 1033–1040 (1987)) and hung in 10-ml organ bath filled with Krebs-Hensright nutrient solution bubbled with a mixed gas of 95% O2 and 5% CO2. One end of the blood vessel was connected to an isometric transducer (FD Pickup TB-912T, Nihon Kohden) and applied with 2.5 g of resting tension, and constriction and relaxation reactions of the aorta were recorded. The aorta was constricted with phenylephrine (1 μM, Sigma) and then added with a test compound (1 μM), and the vasoconstriction inhibitory action thereof was observed. The vasoconstriction inhibitory actions of the test compounds are shown in Table 6 mentioned below as the relaxation ratios, which are based on the vasoconstriction with phenylephrine immediately before the addition of the test compound taken as 100%.

The subject of a further assay is intraocular pressure. The experiment in a line: Intraocular pressure reducing action (Test Example 4). Type of assay: in vivo, Japanese white rabbit. The note with it: for intraocular pressure reducing activity: result in words, rabbit; for inhibition in vivo at 1 %, 50 µL: Oryctolagus cuniculus, topical, 1% aqueous solution, 50 μl dropped to the left eye, after 2 hours, read-out: Intraocular pressure reducing action (reduction ratio) (%). The protocol:
A Japanese white rabbit having a body weight of about 2 kg was placed in a positioner and naturalized for one week before the experiment. An ophthalmologic local anesthesant (Benoxil) was administered to the left eye, and then intraocular pressure was measured by using a tonometer (Classic 30, Solan). The initial value of the intraocular pressure was measured, then 50 μl of a test compound (1% aqueous solution) was dropped to the left eye, and after 2 hours, the intraocular pressure was measured. The intraocular pressure reducing action of the test compounds is shown in Table 7 mentioned below as ratios (%) of reduction of intraocular pressure based on the initial value of the intraocular pressure.

The target in assay [2] is T1, myosin light chain phosphorylation enzyme (MLCK) (Gallus gallus, UniProt P11799).
T1 construct: purified from chicken gizzard smooth muscle by a conventional method; from tissue; host or cells: chicken gizzard smooth muscle
The experiment in a line: Action on myosin light chain phosphorylation enzyme (MLCK) activity. The following applies: for inhibition of MLCK: result in words; for IC50: MLCK from chicken gizzard smooth muscle, ELISA, 100 μM ATP, read-out: Myosin light chain phosphorylation enzyme inhibitory action IC50. Type of assay: biochemical, chicken. Here is the method:
A myosin light chain phosphorylation enzyme (MLCK) was purified from chicken gizzard smooth muscle by a conventional method (Yoshida, M., et al., J. Biochem., 99, 1027–1036 (1986)). The myosin regulatory light chain as a substrate was purified from the chicken gizzard smooth muscle by a conventional method (Grand, R. J., et al., Biochem. J., 211, 267–272 (1983)). The MLCK activity was measured by ELISA using pLC1 described in Test Example 1 (Sakurada, K., et al., J. Biochem., 115, 18–21 (1994)). The myosin regulatory light chain was diluted in phosphate-buffered saline (PBS, Sigma) to a concentration of 5.0 µg/ml, added to 96-well Immunoplate (Nunc) in a volume of 100 μl per well and left stand overnight at 4° C. Each well was washed with PBS, and 25 mM Tris/HCl buffer containing 100 μM ATP, 3 mM MgCl2, 1 mM CaCl2, 100 ng/ml of calmodulin (Sigma) and 100 ng/ml of MLCK (pH 7.4, Buffer A) was added to each well and incubated at 30° C. for 10 minutes. In a volume of 100 μl each of 20% aqueous phosphoric acid solution was added to each well to terminate the enzymatic reaction. Each well was washed with 25 mM Tris/HCl buffer (TTBS) containing 0.1% Tween 20, and then 100 μl each of pLC1 described in Test Example 1 was added to each well and incubated at room temperature for 90 minutes.
Each well was washed with TTBS, and then 100 μl of the HRP-labeled rabbit anti-mouse IgG antibodies (Bio-Rad) were added to each well and incubated at room temperature for 90 minutes. Each well was washed with TTBS, and then 25 mM citrate buffer (pH 5.0) containing orthophenylenediamine (Sigma) as a substrate of HRP and aqueous hydrogen peroxide (0.03%) was added in a volume of 100 μl per well and incubated at room temperature for 5 minutes. 50 μl of 4 N sulfuric acid was added to each well to terminate the reaction, and then absorbance was measured by using an immunoplate reader (Bio-Rad).
For orientation: An ELISA detects its analyte on a solid surface through an enzyme-linked reagent.

Molecules are shown by their SMILES. Counter-ions that a name gives are not always drawn.

`CCc1cncc2cccc(NC3CCNCC3)c12.Cl` [Example 113, 4-(4-Ethyl-5-isoquinolyl)aminopiperidine hydrochloride]: in assay [1], the vasoconstriction inhibitory action result was “significant vasoconstriction inhibitory action”. Also, in the assay on intraocular pressure, the “intraocular pressure reducing activity” value is “significant intraocular pressure reducing activity”.
As to `Cl.NCCCN(CCCc1cccc(C(=O)O)c1)S(=O)(=O)c1cccc2cnccc12` [Example 128, N-[(5-Isoquinolyl)sulfonyl]-N-[3-(3-carboxy)phenylpropyl]-1,3-propylenediamine hydrochloride], the “inhibition of MLCK” value in assay [2] is listed as “did not inhibit MLCK”.
Still for that read-out and setting: as for `Cl.Nc1nccc2c(O[C@H]3CC[C@@H](N)CC3)cccc12` [Example 141, Cis-4-[(1-amino-5-isoquinolyl)oxy]cyclohexylamine hydrochloride], the entry is “did not inhibit MLCK”.
Consider `Cc1cncc2cccc(S(=O)(=O)N(CCCN)CCCc3ccccc3)c12.Cl` [Example 5, N-[(4-Methyl-5-isoquinolyl)sulfonyl]-N-(3-phenylpropyl)-1,3-propylenediamine hydrochloride], for which, in assay [1], the vasoconstriction inhibitory action entry is on record as “significant vasoconstriction inhibitory action”.
As a reminder, the IC50 is the point on the concentration scale where inhibition reaches its midpoint. `NCCN(CCS(=O)(=O)c1ccccc1)S(=O)(=O)c1cccc2cnccc12` [Example 7, N-[(5-Isoquinolyl)sulfonyl]-N-[2-(phenylsulfonyl)ethyl]ethylenediamine hydrochloride]: the IC50 in assay [2] was above 50 µM. Also, the inhibition in vivo at 1 %, 50 µL with intraocular pressure stood at 30.1%.
`C=Cc1cncc2cccc(NC3CCNCC3)c12.Cl` [Example 112, 4-(4-Vinyl-5-isoquinolyl)aminopiperidine hydrochloride]: the “inhibition of MLCK” value in assay [2] is “did not inhibit MLCK”. Also, the vasoconstriction inhibitory action result in assay [1] is “significant vasoconstriction inhibitory action”. Also, the inhibition in vivo at 1 %, 50 µL with intraocular pressure was 25%.
Take `CSc1cncc2cccc(NC3CCNCC3)c12.Cl` [Example 105, 4-(4-Methylthio-5-isoquinolyl)aminopiperidine hydrochloride]: in assay [1], the vasoconstriction inhibitory action result is listed as “significant vasoconstriction inhibitory action”. Also, the inhibition in vivo at 1 %, 50 µL in the assay on intraocular pressure turned out to be 18.8%.
`Cc1cncc2cccc(OC3CCNCC3)c12.Cl` [Example 139, 4-[(4-Methyl-5-isoquinolyl)oxy]piperidine hydrochloride]: the vasoconstriction inhibitory action entry in assay [1] is reported as “significant vasoconstriction inhibitory action”. Moreover, the “intraocular pressure reducing activity” value in the assay on intraocular pressure is “significant intraocular pressure reducing activity”.
Consider `Cl.NC1CCC(Nc2cccc3cncc(Br)c23)CC1` (stereo not drawn) [Example 107, N-(4-Bromo-5-isoquinolyl)-1,4-cyclohexanediamine hydrochloride], for which, in the assay with intraocular pressure, the “intraocular pressure reducing activity” value is given as “significant intraocular pressure reducing activity”.
Take `Cl.c1cc(OC2CCNCC2)c2ccncc2c1` [Example 27, 4-[(5-Isoquinolyl)oxy]piperidine hydrochloride]: the “inhibition of MLCK” value in assay [2] was “did not inhibit MLCK”. Besides, the inhibition in vivo at 1 %, 50 µL with intraocular pressure came out at 12.5%.
As for `Cl.N[C@H]1CC[C@H](Oc2cccc3cnccc23)CC1` [Example 135, Trans-4-[(5-isoquinolyl)oxy]cyclohexylamine hydrochloride], the “intraocular pressure reducing activity” value in the assay on intraocular pressure is on record as “significant intraocular pressure reducing activity”.
For the compound `Cl.NCCCN(CCCc1ccccc1)S(=O)(=O)c1cccc2c(N)nccc12` [Example 8, N-[(1-Amino-5-isoquinolyl)sulfonyl]-N-(3-phenylpropyl)-1,3-propylenediamine hydrochloride], in assay [2], the IC50 was above 50 µM. Moreover, in assay [1], the vasoconstriction inhibitory action result is “significant vasoconstriction inhibitory action”.
With `Cl.Oc1nccc2c(NC3CCNCC3)cccc12` [Example 115, 4-(1-Hydroxy-5-isoquinolyl)aminopiperidine hydrochloride], in the assay with intraocular pressure, the “intraocular pressure reducing activity” value is listed as “significant intraocular pressure reducing activity”.
For `Cl.NCCCN(CCS(=O)(=O)c1ccccc1)S(=O)(=O)c1cccc2c(O)nccc12` [Example 13, N-[(1-Hydroxy-5-isoquinolyl)sulfonyl]-N-[2-(phenylsulfonyl)ethyl]-1,3-propylenediamine hydrochloride], the vasoconstriction inhibitory action entry in assay [1] is “significant vasoconstriction inhibitory action”.
Take `COC(=O)c1ccc(CCCN(CCCN)S(=O)(=O)c2cccc3cnccc23)cc1.Cl` [Example 130, N-[(5-Isoquinolyl)sulfonyl]-N-[3-(4-methoxycarbonyl)phenylpropyl]-1,3-propylenediamine hydrochloride]: the “inhibition of MLCK” value in assay [2] is listed as “did not inhibit MLCK”.
For the compound `Cc1cncc2cccc(N[C@H]3CC[C@@H](N)CC3)c12.Cl` [Example 120, Cis-N-(4-methyl-5-isoquinolyl)-1,4-cyclohexanediamine hydrochloride], in assay [2], the “inhibition of MLCK” value is given as “did not inhibit MLCK”. In assay [1], the vasoconstriction inhibitory action result is “significant vasoconstriction inhibitory action”. The “intraocular pressure reducing activity” value in the assay on intraocular pressure is on record as “significant intraocular pressure reducing activity”.
For the compound `Cl.OCCCN1CCC(Nc2cccc3cnccc23)CC1` [Example 145, 1-(3-Hydroxypropyl)-4-(5-isoquinolyl)aminopiperidine hydrochloride], the “intraocular pressure reducing activity” value with intraocular pressure was “significant intraocular pressure reducing activity”.
Consider `C=Cc1cncc2cccc(O[C@H]3CC[C@H](N)CC3)c12.Cl` [Example 136, Trans-4-[(4-vinyl-5-isoquinolyl)oxy]cyclohexylamine hydrochloride], for which the vasoconstriction inhibitory action entry in assay [1] is “significant vasoconstriction inhibitory action”. Also, in the assay on intraocular pressure, the “intraocular pressure reducing activity” value is given as “significant intraocular pressure reducing activity”.
Consider `NCCCN(CCCc1ccccc1)S(=O)(=O)c1cccc2cnccc12` [Example 1, N-[(5-Isoquinolyl)sulfonyl]-N-(3-phenylpropyl)-1,3-propylenediamine hydrochloride], for which the half-maximal inhibitory concentration (IC50) in assay [2] was above 50 µM.
With `Cl.N#Cc1cncc2cccc(O[C@H]3CC[C@H](N)CC3)c12` [Example 134, Trans-4-[(4-cyano-5-isoquinolyl)oxy]cyclohexylamine hydrochloride], the vasoconstriction inhibitory action entry in assay [1] is given as “significant vasoconstriction inhibitory action”. The “intraocular pressure reducing activity” value with intraocular pressure was “significant intraocular pressure reducing activity”.
For `Cl.Fc1cncc2cccc(NC3CCNCC3)c12` [Example 104, 4-(4-Fluoro-5-isoquinolyl)aminopiperidine hydrochloride], in assay [2], the “inhibition of MLCK” value is listed as “did not inhibit MLCK”. Further, the inhibition in vivo at 1 %, 50 µL with intraocular pressure was found to be 18.8%.
In the case of `N[C@H]1CC[C@H](Nc2cccc3cnccc23)CC1` [Example 24, Trans-N-(5-isoquinolyl)-1,4-cyclohexanediamine hydrochloride], in the assay on intraocular pressure, the inhibition in vivo at 1 %, 50 µL worked out at 35.7%.
For `NCCCOc1cccc2c(N)nccc12` [Example 10, 3-[(1-Amino-5-isoquinolyl)oxy]propylamine hydrochloride], in assay [2], the 50% inhibitory concentration (IC50) is above 30 µM.
